From patent publication US11001569B2, “6-membered heteroaromatic substituted cyanoindoline derivatives as NIK inhibitors” (Janssen Pharmaceutica NV, priority 2016, dated 2021) come the findings set out here.

Where two headings read alike, the source gives them in different places.

For data set [1], the system named is JJN-3 (NIK translocated) multiple myeloma cells. The data set can be described thus: Antiproliferative activity on JJN-3 multiple myeloma cells (CellTiter-Glo). Format: cell-based, human. The following applies: JJN-3 (NIK translocated) cells, 96 hr treatment, averaged values, read-out: JJN-3 Proliferation inhibition (IC50 (nM)). The method in brief:
(§1)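 Cells plated at 15000 (JJN3) or 20000 (KMS12BM) per well and treated 96 h at 37° C, 5% CO2, final DMSO 0.3%, 9-point 1:3 dilutions. Viability by CellTiter-Glo luminescence; time-zero blank subtracted, growth expressed as percent of untreated control.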
Background: Cellular ATP, detected with luciferase, serves as a proxy for viable cell number.

The target of data set [2] is recombinant human NF-kappaB-inducing Kinase (NIK/MAP3K14) (Homo sapiens, UniProt Q99558). The data set is described as follows: Inhibition of auto-phosphorylation of recombinant human NIK/MAP3K14 activity (AlphaScreen). Format: biochemical. The following applies: 25 microM ATP, averaged over all measurements on all batches. On the technique in general: Alpha assays give light when donor and acceptor beads are brought close together.
recombinant human NF-kappaB-inducing Kinase (NIK/MAP3K14), sequence (Q99558 whole entry): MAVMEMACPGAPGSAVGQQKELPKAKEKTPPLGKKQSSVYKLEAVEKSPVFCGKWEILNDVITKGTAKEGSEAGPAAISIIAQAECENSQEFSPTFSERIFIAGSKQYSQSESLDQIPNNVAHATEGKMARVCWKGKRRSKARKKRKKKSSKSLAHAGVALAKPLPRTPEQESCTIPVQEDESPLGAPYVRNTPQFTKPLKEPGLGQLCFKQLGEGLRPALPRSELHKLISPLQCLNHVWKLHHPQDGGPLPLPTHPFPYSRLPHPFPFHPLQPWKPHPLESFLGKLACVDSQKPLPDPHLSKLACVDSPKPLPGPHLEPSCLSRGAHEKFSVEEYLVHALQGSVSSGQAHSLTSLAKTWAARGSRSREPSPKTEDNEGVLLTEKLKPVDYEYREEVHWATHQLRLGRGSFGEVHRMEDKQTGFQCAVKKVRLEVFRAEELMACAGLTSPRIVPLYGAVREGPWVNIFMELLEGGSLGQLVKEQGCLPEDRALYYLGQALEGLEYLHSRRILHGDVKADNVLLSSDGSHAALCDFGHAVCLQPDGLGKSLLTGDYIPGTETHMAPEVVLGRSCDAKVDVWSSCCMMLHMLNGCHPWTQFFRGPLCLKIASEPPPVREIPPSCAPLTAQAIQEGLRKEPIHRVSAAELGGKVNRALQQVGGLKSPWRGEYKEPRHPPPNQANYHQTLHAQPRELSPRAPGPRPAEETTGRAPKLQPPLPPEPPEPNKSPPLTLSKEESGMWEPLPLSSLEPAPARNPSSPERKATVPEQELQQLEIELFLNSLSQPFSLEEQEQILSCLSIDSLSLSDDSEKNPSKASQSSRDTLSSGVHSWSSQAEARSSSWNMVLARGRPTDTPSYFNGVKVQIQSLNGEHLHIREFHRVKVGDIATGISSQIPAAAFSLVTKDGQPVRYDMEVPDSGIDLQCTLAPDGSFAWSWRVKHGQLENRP

The test system of data set [3] is P-IKKα levels in L363 (NIK translocated multiple myeloma) cells. The data set is described as follows: Effect of compounds on P-IKKα levels in L363 cells (Mesoscale sandwich immuno-assay). Format: cell-based, human. The following applies: 2 hr treatment, averaged values, read-out: Inhibition of pIKKα_L-363 (IC50 (nM)). As for the experimental part: Effect of Compounds on P-IKKα Levels in L363 (NIK Translocated Multiple Myeloma) Cells
All compounds tested were dissolved in DMSO and further dilutions were made in culture medium. Final DMSO concentration was 1% (v/v) in cell assays. The human L363 cells (ATCC) were cultured in RPMI 1640 medium supplemented with GlutaMax and 10% fetal calf serum (PAA). Cells were routinely maintained at densities of 0.2×10^6 cells per ml-1×10^6 cells per ml at 37° C. in a humidified 5% CO2 atmosphere. Cells were passaged twice a week splitting back to obtain the low density. Cells were seeded in 96 well plates (Nunc 167008) at 2×10^6 per ml media in a volume of 75 μl per well plus 25 μl 1 μg/ml recombinant human B-cell activating factor (BAFF/BLyS/TNFSF13B). Seeded cells were incubated at 37° C. in a humidified 5% CO2 atmosphere for 24 hr. Drugs and/or solvents were added (20 μl) to a final volume of 120 μl. Following 2 hr treatment plates were removed from the incubator and cell lysis was achieved by the addition of 30 μl 5× lysis buffer followed by shaking on a plate shaker at 4° C. for 10 min. At the end of this incubation lysed cells were centrifuged at 800×g for 20 min at 4° C. and the lysate was assessed for P-IKK levels by sandwich immuno-assay carried out in anti-rabbit antibody coated Mesoscale plates. Within an experiment, the results for each treatment were the mean of 2 replicate wells. For initial screening purposes, compounds were tested using an 8 point dilution curve (serial 1:3 dilutions). […] The blank incubation value was subtracted from all control and sample values. To determine the IC50 a sigmoidal curve was fitted to the plot of % inhibition of control P-IKKα levels versus Log10 compound concentration.

Data set [4] relates to KMS12-BM (NIK WT) multiple myeloma cells. The data set can be described thus: Antiproliferative activity on KMS12-BM multiple myeloma cells (CellTiter-Glo). Format: cell-based, human. The following applies: 96 hr treatment, averaged values, read-out: KMS-12 Proliferation inhibition (IC50 (nM)). Summed up: as §1

Consider `CC(C)Oc1nc(P(C)(C)=O)ccc1Nc1nccc(-c2cc(C#N)c3c(c2)[C@@](C)(CO)CN3)n1` [Compound 57], for which the IC50 was 316 nM in data set [1] (Homo sapiens, JJN-3, 96 h); 4.3 nM in data set [2]; 13.8 nM in data set [3] (Homo sapiens, L-363, 2 h); about 8130 nM in data set [4] (Homo sapiens, KMS-12-BM, 96 h).
In the same order, the values of `COCCCc1ccc(Nc2nccc(-c3cc(C#N)c4c(c3)[C@@](C)(CO)CN4)n2)c(OC)n1` [Compound 58] are 200 nM, 6.9 nM, about 17 nM and over 10000 nM.
In the same order, the values of `CC(C)Oc1ncc(C#N)cc1Nc1nccc(-c2cc(C#N)c3c(c2)[C@@](C)(CO)CN3)n1` [Compound 75] are over 10000 nM, 9.8 nM, 18.2 nM and over 10000 nM.
With `Cc1cc(Nc2ncc(F)c(-c3cc(C#N)c4c(c3)[C@@](C)(CO)CN4)n2)c(C)cn1` [Compound 158], the IC50 in data set [1] (Homo sapiens, JJN-3, 96 h) was 49 nM; in data set [2] it was 1.6 nM; in data set [3] (Homo sapiens, L-363, 2 h) it was 2.3 nM; in data set [4] (Homo sapiens, KMS-12-BM, 96 h), over 10000 nM.
In the same order, the values of `Cc1cc(Nc2nccc(-c3cc(C#N)c4c(c3)[C@@](C)(CO)CN4)n2)c(=O)n(CC2COCCN2C)c1` (stereo partly drawn) [Compound 26i] are 28 nM, 2.1 nM, 2.3 nM and over 10000 nM.
The corresponding values for `Cc1cc(Nc2nccc(-c3cc(C#N)c4c(c3)[C@@](C)(CO)CN4)n2)c(=O)n(CCC2CC2)c1` [Compound 5i] are 282 nM, 4.5 nM, 15.8 nM and 5010 nM.
The corresponding values for `Cc1cnc(CCC(=O)N(C)C)c(Nc2nccc(-c3cc(C#N)c4c(c3)[C@@](C)(CO)CN4)n2)c1` [Compound 80] are 525 nM, 3.7 nM, 38.9 nM and over 10000 nM.
For the compound `COc1nc(C2CCOCC2)ncc1Nc1nccc(-c2cc(C#N)c3c(c2)[C@@](C)(CO)CN3)n1` [Compound 140], the IC50 in data set [1] (Homo sapiens, JJN-3, 96 h) is 427 nM; in data set [2], 4.8 nM; in data set [3] (Homo sapiens, L-363, 2 h), 12 nM; in data set [4] (Homo sapiens, KMS-12-BM, 96 h) it was over 10000 nM.
The corresponding values for `Cc1cc(Nc2nccc(-c3cc(C#N)c4c(c3)C(C)(C)CN4)n2)c(=O)n(CCN2CC(F)C2)c1` [Compound 27i] are 148 nM, 5.8 nM, 13.8 nM and over 10000 nM.
As for `Cc1cnc(OC2CCN(C)CC2F)c(Nc2nccc(-c3cc(C#N)c4c(c3)[C@@](C)(CO)CN4)n2)c1` (mixture of isomers) [Compound 171], the IC50 in data set [1] was 12 nM; in data set [2] it was 7.4 nM; in data set [3], 6.9 nM; in data set [4], over 10000 nM.
As for `COCCOc1ncc(C2CC2)cc1Nc1nccc(-c2cc(C#N)c3c(c2)[C@@](C)(CO)CN3)n1` [Compound 67], the IC50 in data set [1] (Homo sapiens, JJN-3, 96 h) was 204 nM; in data set [2] it was 12.3 nM; in data set [3] (Homo sapiens, L-363, 2 h) it was 186 nM; in data set [4] (Homo sapiens, KMS-12-BM, 96 h), over 10000 nM.
`CC1(CO)CNc2c(C#N)cc(-c3ccnc(Nc4cc(Cl)cnc4C(=O)N4CCCC4)n3)cc21` (stereo not drawn) [Compound 179]: the IC50 in data set [2] was 93.3 nM; in data set [3] (Homo sapiens, L-363, 2 h) it was 1440 nM.
Consider `Cc1cc(Nc2nccc(-c3cc(C#N)c4c(c3)[C@@](C)(CO)CN4)n2)c(CCC2CC2)nc1P(C)(C)=O` [Compound 96], for which the IC50 was 65 nM in data set [1] (Homo sapiens, JJN-3, 96 h); 2.2 nM in data set [2]; 1.1 nM in data set [3] (Homo sapiens, L-363, 2 h); over 10000 nM in data set [4] (Homo sapiens, KMS-12-BM, 96 h).
Regarding `COc1ncccc1Nc1nccc(-c2cc(C#N)c3c(c2)C(C)(CO)CN3)n1` (stereo not drawn) [Compound 1], the IC50 in data set [1] (Homo sapiens, JJN-3, 96 h) is 79 nM; in data set [3] (Homo sapiens, L-363, 2 h), 81.3 nM; in data set [4] (Homo sapiens, KMS-12-BM, 96 h), about 2690 nM.
For `COc1ncccc1Nc1nccc(-c2cc(C#N)c3c(c2)C(C)(C)CN3)n1` [Compound 97], the IC50 in data set [1] (Homo sapiens, JJN-3, 96 h) is 1820 nM; in data set [2], 9.8 nM; in data set [3] (Homo sapiens, L-363, 2 h) it was 42.7 nM; in data set [4] (Homo sapiens, KMS-12-BM, 96 h), over 10000 nM.
In the same order, the values of `Cc1cnc(/C=C/C(=O)N(C)C)c(Nc2nccc(-c3cc(C#N)c4c(c3)[C@@](C)(CO)CN4)n2)c1` [Compound 84] are 4680 nM, 5.6 nM, 11.8 nM and over 10000 nM.
For `CN1CCC(c2cc(Nc3nccc(-c4cc(C#N)c5c(c4)[C@@](C)(CO)CN5)n3)c(=O)n(CC3CC3)c2)CC1` [Compound 21i], the IC50 was determined as 64.6 nM in data set [2] and 550 nM in data set [3] (Homo sapiens, L-363, 2 h).
Consider `Cc1cc(Nc2nccc(-c3cc(C#N)c4c(c3)[C@@](C)(CO)CN4)n2)c(C)nc1OC1CCN(C)CC1` [Compound 172], for which the IC50 was 26 nM in data set [1] (Homo sapiens, JJN-3, 96 h); 4.1 nM in data set [2]; 3.9 nM in data set [3] (Homo sapiens, L-363, 2 h); about 2190 nM in data set [4] (Homo sapiens, KMS-12-BM, 96 h).
The corresponding values for `Cc1nc(P(C)(C)=O)c(Cl)cc1Nc1nccc(-c2cc(C#N)c3c(c2)[C@@](C)(CO)CN3)n1` [Compound 90] are 5890 nM, 1.9 nM, 32.4 nM and over 10000 nM.
Turning to `Cc1cnc(CCC2CC2)c(Nc2nccc(-c3cc(C#N)c4c(c3)[C@@](C)(CO)CN4)n2)c1` [Compound 68], the IC50 in data set [1] (Homo sapiens, JJN-3, 96 h) is 98 nM; in data set [2], 3.9 nM; in data set [3] (Homo sapiens, L-363, 2 h), about 20 nM; in data set [4] (Homo sapiens, KMS-12-BM, 96 h) it was 5130 nM.
On to `CNC(=O)c1ncc(Cl)cc1Nc1nccc(-c2cc(C#N)c3c(c2)C(C)(CO)CN3)n1` (stereo not drawn) [Compound 178], for which the IC50 in data set [2] was determined as 18.2 nM; in data set [3] (Homo sapiens, L-363, 2 h), 51.3 nM.
Take `CC(C)(CO)Oc1ncc(C#N)cc1Nc1nccc(-c2cc(C#N)c3c(c2)[C@@](C)(CO)CN3)n1` [Compound 78]: the IC50 in data set [1] (Homo sapiens, JJN-3, 96 h) is 589 nM; in data set [2], 4.7 nM; in data set [3] (Homo sapiens, L-363, 2 h), 28.2 nM; in data set [4] (Homo sapiens, KMS-12-BM, 96 h) it was over 10000 nM.
On to `Cc1cc(Nc2nccc(-c3cc(C#N)c4c(c3)[C@@](C)(CO)CN4)n2)c(=O)n(CCN2CCOCC2)c1` [Compound 7i], for which the IC50 was 115 nM in data set [1] (Homo sapiens, JJN-3, 96 h); 1.2 nM in data set [2]; 3.7 nM in data set [3] (Homo sapiens, L-363, 2 h); 9550 nM in data set [4] (Homo sapiens, KMS-12-BM, 96 h).
The corresponding values for `CNC(=O)c1cnc(CCC2CC2)c(Nc2nccc(-c3cc(C#N)c4c(c3)[C@@](C)(CO)CN4)n2)c1` [Compound 87] are 427 nM, 3.8 nM, 27.5 nM and over 10000 nM.
In the same order, the values of `CNC(=O)c1cc(Nc2nccc(-c3cc(C#N)c4c(c3)[C@@](C)(CO)CN4)n2)c(C)cn1` [Compound 165] are 117 nM, 1.3 nM, 6.2 nM and over 10000 nM.
Turning to `COCCNc1nc(OC)c(Nc2nccc(-c3cc(C#N)c4c(c3)C(C)(C)CN4)n2)cc1Cl` [Compound 98], the IC50 in data set [1] (Homo sapiens, JJN-3, 96 h) was 832 nM; in data set [2], 50.1 nM; in data set [3] (Homo sapiens, L-363, 2 h), 45.7 nM; in data set [4] (Homo sapiens, KMS-12-BM, 96 h), over 10000 nM.
For `COc1ncccc1Nc1ncnc(-c2cc(C#N)c3c(c2)[C@@](C)(CO)CN3)n1` [Compound 181], the IC50 in data set [2] was 5.2 nM; in data set [3] (Homo sapiens, L-363, 2 h), 25.1 nM.
As a reminder, the melting point is the temperature, or range, at which the solid turns liquid. `C[C@]1(CO)CNc2c(C#N)cc(-c3ccnc(Nc4cccnc4OC[C@@H]4CCCO4)n3)cc21` [Compound 42] registered a melting point of 154 °C. Also, the IC50 in data set [1] (Homo sapiens, JJN-3, 96 h) amounted to 347 nM. In addition, in data set [2], the IC50 was found to be 6.2 nM. In addition, the IC50 in data set [4] (Homo sapiens, KMS-12-BM, 96 h) was over 10000 nM.
The corresponding values for `Cn1cc(Cl)cc(Nc2nccc(-c3cc(C#N)c4c(c3)C(C)(CO)CN4)n2)c1=O` (stereo not drawn) [Compound 15i] are 295 °C, about 427 nM, 3.6 nM and over 10000 nM.
The corresponding values for `CC(C)Oc1ncccc1Nc1nccc(-c2cc(C#N)c3c(c2)C(C)(CO)CN3)n1` (stereo not drawn) [Compound 18] are 140 °C, 776 nM, 9.1 nM and over 10000 nM.
